Patent US20110144079A1, “ANTIMICROBIAL SYSTEM” (priority 2008, published 2011)

What was measured:
P. mirabilis NCTC 12442 [1] = test: Biofilm assay (Calgary Biofilm Device), MBEC; assay type: cell-based; details: P. mirabilis NCTC 12442 24 h biofilm, 24 h challenge
Method: (§1) Biofilms of each test organism were grown in the Calgary Biofilm Device (commercially available as the MBEC Assay™ for Physiology & Genetics, Innovotech Inc., Edmonton, Alberta, Canada). The device, a micro-titre plated based assay, consists of two parts; a microtitre plate containing the inoculated test medium and a polystyrene lid with 96 identical pegs on which the microbial biofilm forms under gyrorotary incubation. The biofilm assay was conducted according to the MBEC™ assay protocol as supplied by the manufacturer, with slight modifications. Inocula of each test organism were prepared in MHB as described above and adjusted to provide a final inoculum density of ˜10^7 CFU ml^−1 (as confirmed by viable count). 150 μl of the inoculated media was transferred to each well of the 96-well microtitre plate and the assay plate lid, bearing 96 pegs was placed into the microtitre plate. The MBEC assay plates were placed in a gyrorotary incubator (37° C., 95% relative humidity) for 24 h to permit growth and comparison of 24 h biofilms of each test strain. Positive and negative growth controls were included in each plate (6 replicates). Initial and 24 h planktonic viable counts were measured, as were 24 h biofilm counts, expressed as CFU peg^−1, according to manufacturers instructions. After 24 h, the peg lid of the MBEC assay plate was gently rinsed three times. After rinsing, the peg lid of the MBEC assay was transferred to a ‘challenge’ plate. Serial dilutions of each imidazolium salt were prepared in 200 μl of MHB containing various concentrations of IL in each well. Positive growth control and sterility control were included in each assay plate. […] Biofilms were dislodged into recovery media by sonication for 5 minutes and the peg lid discarded. The recovery plate is incubated overnight and visually checked after 24 h for turbidity. In addition, optical density measurements for each plate were recorded at 550 nm. Clear wells were taken as evidence of biofilm eradication and the MBEC value was assigned as the lowest concentration at which no growth was observed after 24 h incubation. Plates were incubated for a further 24 h to confirm biofilm eradication concentrations.

E-MRSA 15 [2] = test: Biofilm assay (Calgary Biofilm Device), MBEC; assay type: cell-based; details: E-MRSA 15 24 h biofilm, 24 h challenge
Method: as §1

P. aeruginosa PA01 [3] = test: Biofilm assay (Calgary Biofilm Device), MBEC; assay type: cell-based; details: P. aeruginosa PA01 24 h biofilm, 24 h challenge
Method: as §1

C. tropicalis NCTC 7393 [4] = test: Biofilm assay (Calgary Biofilm Device), MBEC; assay type: cell-based; details: C. tropicalis NCTC 7393 24 h biofilm, 24 h challenge
Method: as §1

K. aerogenes NCTC 7427 [5] = test: Biofilm assay (Calgary Biofilm Device), MBEC; assay type: cell-based; details: K. aerogenes NCTC 7427 24 h biofilm, 24 h challenge
Method: as §1

[6] = system: S. epidermidis ATCC 35984; test: Biofilm assay (Calgary Biofilm Device), MBEC; assay type: cell-based; details: S. epidermidis ATCC 35984 24 h biofilm, 24 h challenge
Method: as §1

S. aureus PIII [7] = test: Biofilm assay (Calgary Biofilm Device), MBEC; assay type: cell-based; details: S. aureus PIII 24 h biofilm, 24 h challenge
Method: as §1

B. cereus [8] = test: Biofilm assay (Calgary Biofilm Device), MBEC; assay type: cell-based; details: B. cereus 24 h biofilm, 24 h challenge
Method: as §1

E. coli NCTC 8196 [9] = test: Biofilm assay (Calgary Biofilm Device), MBEC; assay type: cell-based; details: E. coli NCTC 8196 24 h biofilm, 24 h challenge
Method: as §1

S. aureus PIII [10] = test: Broth microdilution MIC; assay type: cell-based
Method: (§2) Broth microdilution tests were performed according to NCCLS guidelines. Serial two-fold dilutions of each imidazolium salt (from an original working solution which had been 0.22 μm sterile filtered) in Mueller-Hinton Broth (MHB) (100 μl) were prepared in 96-well micro-titre plates over the range 0.0000625-1% w/v. The inoculum to be tested was prepared by adjusting the turbidity of an actively overnight growing broth culture in MHB to an optical density at 550 nm equivalent to 1×10^8 CFU/ml. The suspension was further diluted to provide a final inoculum density of 2×10^5 CFU/ml in MHB as verified by total viable count. The inoculum to be tested (100 μl, 2×10^5 CFU ml^−1) was added to each well of the microdilution trays which were incubated aerobically for 24 h at 37° C. Positive and negative growth controls were included in every assay (6 replicates). After determining the MICs, minimum bactericidal concentrations (MBCs) were determined by spreading 20 μl of suspension from wells showing no growth onto MHA plates, which were then incubated for 24 h and examined for 99.9% killing.

P. mirabilis NCTC 12442 [11] = test: Broth microdilution MIC/MBC; assay type: cell-based; details: for MIC: P. mirabilis NCTC 12442, 24 h at 37° C.; for MBC: P. mirabilis NCTC 12442, 99.9% killing
Method: as §2

E-MRSA 15 [12] = test: Broth microdilution MIC/MBC; assay type: cell-based; details: for MIC: E-MRSA 15, 24 h at 37° C.; for MBC: E-MRSA 15, 99.9% killing
Method: as §2

P. aeruginosa PA01 [13] = test: Broth microdilution MIC/MBC; assay type: cell-based; details: for MIC: P. aeruginosa PA01, 24 h at 37° C., read-out: MIC; for MBC: P. aeruginosa PA01, 99.9% killing
Method: as §2

C. tropicalis NCTC 7393 [14] = test: Broth microdilution MIC/MBC; assay type: cell-based; details: for MIC: C. tropicalis NCTC 7393, 24 h at 37° C.; for MBC: C. tropicalis NCTC 7393, 99.9% killing
Method: as §2

K. aerogenes NCTC 7427 [15] = test: Broth microdilution MIC/MBC; assay type: cell-based; details: for MIC: K. aerogenes NCTC 7427, 24 h at 37° C.; for MBC: K. aerogenes NCTC 7427, 99.9% killing
Method: as §2

[16] = system: S. epidermidis ATCC 35984; test: Broth microdilution MIC/MBC; assay type: cell-based; details: for MIC: S. epidermidis ATCC 35984, 24 h at 37° C.; for MBC: S. epidermidis ATCC 35984, 99.9% killing
Method: as §2

B. cereus [17] = test: Broth microdilution MIC/MBC; assay type: cell-based; details: for MIC: 24 h at 37° C.
Method: as §2

E. coli NCTC 8196 [18] = test: Broth microdilution MIC/MBC; assay type: cell-based; details: for MIC: E. coli NCTC 8196, 24 h at 37° C.; for MBC: E. coli NCTC 8196, 99.9% killing
Method: as §2

[19] = system: S. epidermidis ATCC 12228; test: Broth microdilution MIC/MBC; assay type: cell-based; details: for MBC: S. epidermidis ATCC 12228, 99.9% killing; for MIC: S. epidermidis ATCC 12228, 24 h at 37° C.
Method: as §2

B. cenocepacia J2315 = test: Broth microdilution MIC/MBC; assay type: cell-based
Method: as §2

S. aureus ATCC 29213 = test: Broth microdilution MIC/MBC; assay type: cell-based; details: for MBC: S. aureus ATCC 29213, 99.9% killing; for MIC: S. aureus ATCC 29213, 24 h at 37° C.
Method: as §2

MRSA [20] = test: Broth microdilution MIC/MBC; assay type: cell-based, methicillin-resistant S. aureus
Method: as §2

MRSA [21] = test: Zone of inhibition on MRSA-seeded agar culture plates; assay type: cell-based, methicillin-resistant S. aureus; details: 40 μL of ionic liquid applied to MRSA-seeded agar culture plates
Text: As used herein, CyMIMCI, refers to 1-alkyl-3-methyl-imidazolium chloride ionic liquids, wherein the alkyl group is a straight chain alkyl group having y carbon atoms.

SMILES | MBEC (P. mirabilis NCTC 12442 [1]) [µM] | MBEC (E-MRSA 15 [2]) [µM] | MBEC (P. aeruginosa PA01 [3]) [µM] | MBEC (C. tropicalis NCTC 7393 [4]) [µM] | MBEC (K. aerogenes NCTC 7427 [5]) [µM] | MBEC [6] [µM] | MBEC (S. aureus PIII [7]) [µM] | MBEC (B. cereus [8]) [µM] | MBEC (E. coli NCTC 8196 [9]) [µM] | MIC (S. aureus PIII [10]) [µM] | MIC (P. mirabilis NCTC 12442 [11]) [µM] | MIC (E-MRSA 15 [12]) [µM] | MIC (P. aeruginosa PA01 [13]) [µM] | MIC (C. tropicalis NCTC 7393 [14]) [µM] | MIC (K. aerogenes NCTC 7427 [15]) [µM] | MIC [16] [µM] | MIC (B. cereus [17]) [µM] | MIC (E. coli NCTC 8196 [18]) [µM] | MBC (E-MRSA 15 [12]) [µM] | MBC [19] [µM] | other results
CCCCCCCCCCCCCCCCCC[n+]1cccc2ccccc21.[Br-] [1-alkyl-3-quinolinium bromides 18] | 3356.16 | 1678.08 | 6712.32 | 1678.08 | 6712.32 | 1678.08 | 3356.16 | 3356.16 | 1678.08 | 209.76 | 104.88 | 209.76 | 419.52 | 104.88 | 104.88 | 104.88 | 419.52 | 104.88 | – | – | –
CCCCCCn1cc[n+](C)c1.[Cl-] [1-alkyl-3-methylimidazolium chlorides 6] | – | – | – | – | – | – | – | – | – | – | >1644 | >1644 | >1644 | >1644 | >1644 | >1644 | – | >1644 | >1644 | >1644 | MBC (P. mirabilis NCTC 12442 [11]): >1644 µM; MIC [19]: >1644 µM; MBC (B. cenocepacia J2315; B. cenocepacia J2315, 99.9% killing): >1644 µM; MIC (B. cenocepacia J2315; B. cenocepacia J2315, 24 h at 37° C.): >1644 µM; MBC (P. aeruginosa PA01 [13]): >1644 µM; MBC (C. tropicalis NCTC 7393 [14]): >1644 µM; MBC (K. aerogenes NCTC 7427 [15]): >1644 µM; MBC [16]: >1644 µM; MBC (S. aureus ATCC 29213): >1644 µM; MIC (S. aureus ATCC 29213): >1644 µM; MBC (E. coli NCTC 8196 [18]): >1644 µM; MBC (MRSA [20]; 99.9% killing): >1644 µM; MIC (MRSA [20]; 24 h at 37° C.): >1644 µM
CCCCCCCCCCCCCCCCn1cc[n+](C)c1.[Cl-] [C16MIMCl] | – | – | – | – | – | – | – | – | – | – | – | – | – | – | – | – | – | – | – | – | Zone Of Inhibition Radius (MRSA [21]): 6 mm
CCCCCCCCCCCCCCCCCCn1cc[n+](C)c1.[Cl-] [C18MIMCl] | – | – | – | – | – | – | – | – | – | – | – | – | – | – | – | – | – | – | – | – | Zone Of Inhibition Radius (MRSA [21]): 10 mm
CCCCCCCCCCCCCCCC[n+]1cccc2ccccc21.[Br-] [1-alkyl-3-quinolinium bromides 16] | 2247.68 | 1123.84 | 1123.84 | 561.92 | 561.92 | 561.92 | 1123.84 | 1123.84 | 561.92 | 70.24 | 70.24 | 35.12 | 70.24 | 35.12 | 35.12 | 35.12 | 140.48 | 35.12 | 70.24 | 35.12 | MIC [19]: 35.12 µM; MBC (C. tropicalis NCTC 7393 [14]): 70.24 µM; MBC (K. aerogenes NCTC 7427 [15]): 35.12 µM; MBC [16]: 35.12 µM; MBC (S. aureus ATCC 29213): 70.24 µM; MIC (S. aureus ATCC 29213): 70.24 µM; MBC (E. coli NCTC 8196 [18]): 70.24 µM
CCCCCCCCCCCCCC[n+]1cccc2ccccc21.[Br-] [1-alkyl-3-quinolinium bromides 14] | 546.64 | 136.66 | 136.66 | 68.33 | 136.66 | 68.33 | 91.11 | 273.32 | 136.66 | 5.8 | 5.8 | 5.8 | 23.95 | 3 | 5.8 | 5.8 | 23.95 | 11.6 | 5.8 | 5.8 | MBC (P. mirabilis NCTC 12442 [11]): 5.8 µM; MIC [19]: 3 µM; MBC (P. aeruginosa PA01 [13]): 23.95 µM; MBC (C. tropicalis NCTC 7393 [14]): 3 µM; MBC (K. aerogenes NCTC 7427 [15]): 11.6 µM; MBC [16]: 5.8 µM; MBC (S. aureus ATCC 29213): 5.8 µM; MIC (S. aureus ATCC 29213): 5.8 µM; MBC (B. cereus [17]; 99.9% killing): 29.75 µM; MBC (E. coli NCTC 8196 [18]): 11.6 µM
